Measurements taken from US7732429B2 (Trustees of Tufts College, priority 1994, dated 2010).
≈ marks a conversion by molar mass, not a printed value.

Experiments:
Format in all cases: cell-based
[1] = test system: E. faecalis 211 (Tet M); assay: MIC/MLC chart, analog with and without doxycycline
[2] = test system: S. aureus 4250 (Tet K); assay: MIC/MLC chart, analog with and without doxycycline
[3] = test system: S. aureus 450; assay: susceptibility of tetracycline susceptible strains (MIC), C5 esters; conditions: S. aureus 450, susceptible strain, drug alone
[4] = test system: E. coli DI-299 (Tet A); assay: MIC/MLC chart, analog with and without doxycycline; parameters: key to growth/killing, Analog + Doxy / growth/killing, Doxy Control / growth/killing, Analog Control / growth in MIC/MLC chart: +=growth; 0=no growth (MIC); ↓=killing; ? =99.9% killing (MLC); □=no growth, but no microbiologic testing;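 further: bacterial growth inhibition and killing in broth, each agent tested alone or combined with doxycycline across two-fold serial dilutions, overnight incubation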
[5] = test system: E. coli ML308; assay: susceptibility of tetracycline susceptible strains (MIC), C5 esters; conditions: E. coli ML308, susceptible strain, drug alone
[6] = test system: E. faecalis 158 (Tet L); assay: MIC/MLC chart, analog with and without doxycycline
[7] = test system: E. faecalis ATCC 9790; assay: susceptibility of tetracycline susceptible strains (MIC), C5 esters; conditions: E. faecalis ATCC 9790, susceptible strain, drug alone

C=C1c2cccc(O)c2C(=O)C2=C(O)C3(O)C(=O)C(C(N)=O)=C(O)C(N(C)C)C3C(OC(=O)CC)C12 (stereo not drawn) [Cmpd 2]
growth/killing, Analog + Doxy ([1]; analog 1.56 + Doxy 1.55 μg/ml): +
growth/killing, Analog + Doxy ([1]; analog 1.56 + Doxy 3.1 μg/ml): +
growth/killing, Analog + Doxy ([1]; analog 1.56 + Doxy 6.2 μg/ml): +
growth/killing, Analog + Doxy ([1]; analog 3.12 + Doxy 1.53 μg/ml): +
growth/killing, Analog + Doxy ([1]; analog 3.12 + Doxy 3.05 μg/ml): +
growth/killing, Analog + Doxy ([1]; analog 3.12 + Doxy 6.1 μg/ml): +
growth/killing, Analog + Doxy ([1]; analog .195 + Doxy 1.56 μg/ml): +
growth/killing, Analog + Doxy ([1]; analog .195 + Doxy 3.12 μg/ml): +
growth/killing, Analog + Doxy ([1]; analog .195 + Doxy 6.25 μg/ml): +
growth/killing, Analog + Doxy ([1]; analog .195 + Doxy 12.5 μg/ml): +
growth/killing, Analog + Doxy ([1]; analog .39 + Doxy 1.56 μg/ml): +
growth/killing, Analog + Doxy ([1]; analog .39 + Doxy 3.12 μg/ml): +
growth/killing, Analog + Doxy ([1]; analog .39 + Doxy 6.25 μg/ml): +
growth/killing, Analog + Doxy ([1]; analog .39 + Doxy 12.5 μg/ml): +
growth/killing, Analog + Doxy ([1]; analog .78 + Doxy 1.56 μg/ml): +
growth/killing, Analog + Doxy ([1]; analog .78 + Doxy 3.12 μg/ml): +
growth/killing, Analog + Doxy ([1]; analog .78 + Doxy 6.23 μg/ml): +
growth/killing, Analog + Doxy ([1]; analog .78 + Doxy 12.4 μg/ml): +
growth/killing, Analog Control ([1]; analog alone 1.56 μg/ml): +
growth/killing, Analog Control ([1]; analog alone 3.12 μg/ml): +
growth/killing, Analog Control ([1]; analog alone 6.25 μg/ml): +
growth/killing, Analog Control ([1]; analog alone .195 μg/ml): +
growth/killing, Analog Control ([1]; analog alone .39 μg/ml): +
growth/killing, Analog Control ([1]; analog alone .78 μg/ml): +
growth/killing, Analog + Doxy ([2]; analog .195 + Doxy 1.56 μg/ml): +
growth/killing, Analog + Doxy ([2]; analog .195 + Doxy 3.12 μg/ml): +
growth/killing, Analog + Doxy ([2]; analog .195 + Doxy 6.25 μg/ml): +
growth/killing, Analog + Doxy ([2]; analog .39 + Doxy 1.56 μg/ml): +
growth/killing, Analog + Doxy ([2]; analog .39 + Doxy 3.12 μg/ml): +
growth/killing, Analog + Doxy ([2]; analog .39 + Doxy 6.25 μg/ml): +
growth/killing, Analog + Doxy ([2]; analog .78 + Doxy 1.56 μg/ml): +
growth/killing, Analog + Doxy ([2]; analog .78 + Doxy 3.12 μg/ml): +
growth/killing, Analog Control ([2]; analog alone 1.56 μg/ml): +
growth/killing, Analog Control ([2]; analog alone .195 μg/ml): +
growth/killing, Analog Control ([2]; analog alone .39 μg/ml): +
growth/killing, Analog Control ([2]; analog alone .78 μg/ml): +
MIC of analog in combination ([2]; with 1.55 μg/ml doxycycline (Chart 6B)): 1.56 μg/ml
MIC of analog in combination ([2]; with 6.23 μg/ml doxycycline (Chart 6B)): 0.78 μg/ml
MIC [3]: 1.3 µg/mL (≈ 2.61 µM)
growth/killing, Analog + Doxy ([4]; analog 1.56 + Doxy 1.55 μg/ml): +
growth/killing, Analog + Doxy ([4]; analog 1.56 + Doxy 3.1 μg/ml): +
growth/killing, Analog + Doxy ([4]; analog 1.56 + Doxy 6.2 μg/ml): +
growth/killing, Analog + Doxy ([4]; analog 1.56 + Doxy 12.3 μg/ml): +
growth/killing, Analog + Doxy ([4]; analog 3.12 + Doxy 1.53 μg/ml): +
growth/killing, Analog + Doxy ([4]; analog 3.12 + Doxy 3.05 μg/ml): +
growth/killing, Analog + Doxy ([4]; analog 3.12 + Doxy 6.1 μg/ml): +
growth/killing, Analog + Doxy ([4]; analog 6.25 + Doxy 3.0 μg/ml): +
growth/killing, Analog + Doxy ([4]; analog 6.25 + Doxy 5.9 μg/ml): +
growth/killing, Analog + Doxy ([4]; analog 12.5 + Doxy 2.8 μg/ml): +
growth/killing, Analog + Doxy ([4]; analog 12.5 + Doxy 5.5 μg/ml): +
growth/killing, Analog + Doxy ([4]; analog .195 + Doxy 1.56 μg/ml): +
growth/killing, Analog + Doxy ([4]; analog .195 + Doxy 3.12 μg/ml): +
growth/killing, Analog + Doxy ([4]; analog .195 + Doxy 6.25 μg/ml): +
growth/killing, Analog + Doxy ([4]; analog .195 + Doxy 12.5 μg/ml): +
growth/killing, Analog + Doxy ([4]; analog .39 + Doxy 1.56 μg/ml): +
growth/killing, Analog + Doxy ([4]; analog .39 + Doxy 3.12 μg/ml): +
growth/killing, Analog + Doxy ([4]; analog .39 + Doxy 6.25 μg/ml): +
growth/killing, Analog + Doxy ([4]; analog .39 + Doxy 12.5 μg/ml): +
growth/killing, Analog + Doxy ([4]; analog .78 + Doxy 1.56 μg/ml): +
growth/killing, Analog + Doxy ([4]; analog .78 + Doxy 3.12 μg/ml): +
growth/killing, Analog + Doxy ([4]; analog .78 + Doxy 6.23 μg/ml): +
growth/killing, Analog + Doxy ([4]; analog .78 + Doxy 12.4 μg/ml): +
growth/killing, Analog Control ([4]; analog alone 1.56 μg/ml): +
growth/killing, Analog Control ([4]; analog alone 3.12 μg/ml): +
growth/killing, Analog Control ([4]; analog alone 6.25 μg/ml): +
growth/killing, Analog Control ([4]; analog alone 12.5 μg/ml): +
growth/killing, Analog Control ([4]; analog alone 25.0 μg/ml): +
growth/killing, Analog Control ([4]; analog alone .195 μg/ml): +
growth/killing, Analog Control ([4]; analog alone .39 μg/ml): +
growth/killing, Analog Control ([4]; analog alone .78 μg/ml): +
MIC [5]: 10 µg/mL (≈ 20.1 µM)
growth/killing, Analog + Doxy ([6]; analog .195 + Doxy 1.56 μg/ml): +
growth/killing, Analog + Doxy ([6]; analog .195 + Doxy 3.12 μg/ml): +
growth/killing, Analog + Doxy ([6]; analog .39 + Doxy 1.56 μg/ml): +
growth/killing, Analog Control ([6]; analog alone .195 μg/ml): +
growth/killing, Analog Control ([6]; analog alone .39 μg/ml): +
growth/killing, Analog Control ([6]; analog alone .78 μg/ml): +
MIC [7]: .8 µg/mL (≈ 1.6 µM)
